According to patent publication US8410044B2, “Bacitracin antibiotics” (Xellia Pharmaceuticals Aps, priority 2009, dated 2013):
Where a SMILES comes first, the peptide text is derived from it. Bridges are numbered along the chain shown (N, C = ends). [ ]: non-standard residue; d: D form. The star is where a group is joined. X2 = CCC(C)C(N)C1=NC(C(=O)*)CS1; Orn = NCCC[CH](N)C(=O)O

System: Micrococcus luteus
Assay: Potency (specific antibacterial activity): agar plate inhibition zones compared with Bacitracin Zinc standard
Format: cell-based
Details: calculated from potency of sample A and its 93% area-% content
Description: Potency is the in vitro antibacterial activity. It can be measurered and expressed as IU/mg. The antibacterial activity of samples A, B′ and C′ (see Table 1) was measured. The specific antibacterial activity (listed here as IU/mg), often termed potency, was measured by comparing the antibacterial activity of the unknown sample with known (standard) samples. Specifically, a Bacitracin Zinc standard was dissolved and diluted to 2.0, 1.0, and 0.5 IU bacitracin/ml in 0.07 M phosphate buffer pH 6.0. These three standard solutions were added to agar plates inoculated with the test organism, Micrococcus luteus. The unknown samples were dissolved, diluted and added to the same plate as the standards. After 16-24 hours at 32-37 C, the inhibition zones were measured and the unknown samples were compared to the standards.

SMILES: CCC(C)C(N)C1=NC(C(=O)NC(CC(C)C)C(=O)NC(CCC(=O)O)C(=O)NC(C(=O)NC2CCCCNC(=O)C(CC(N)=O)NC(=O)C(CC(=O)O)NC(=O)C(Cc3c[nH]cn3)NC(=O)C(Cc3ccccc3)NC(=O)C(C(C)CC)NC(=O)C(CCCN)NC2=O)C(C)CC)CS1 (stereo not shown) [Bacitracin A] (X2-LEIK[Orn]IFHDN; lactam 4-C; configuration not given here)
- specific antibacterial activity of Bacitracin A, calculated from sample A (93% Bacitracin A by HPLC at 254 nm): 77.4 IU/mg
